Source: patent publication US20140023611A1 (priority 2010, published 2014)

Key:
[1] = Fecal recovery of orally administered compounds; type: in vivo, Sprague-Dawley rats; settings: Structure (I) examples, Table 16; rat, oral gavage, feces collected until 48 hr after dosing
Source text: (§1) The animals were kept in metabolic cages and feces were collected from the time of dosing until 48 hr after dosing. Upon collection, feces were dried by lyophilization and ground to a visually homogenous powder. Duplicate samples of ground feces from each individual animal were weighed out and extracted using organic solvent. […] Extraction conditions were not optimized for individual compounds, and thus may represent a minimal level of recovery.
as §1, with “collection, feces was dried by” for “collection, feces were dried by”
as §1, with “collection, feces was dried by” for “collection, feces were dried by”
The animals were kept in metabolic cages and feces were collected from the time of dosing until 48 hr after dosing. Upon collection, feces was dried by lyophilization and ground to a visually homogenous powder. Duplicate samples of ground feces from each individual animal were weighed out and extracted using organic solvent.

rat NaP2b (SLC34A2) = biological target: T1, rat NaP2b (SLC34A2) (Rattus norvegicus, UniProt Q9JJ09); assay: Inhibition of NaP2b-mediated Pi (33P) uptake in transfected HEK293 cells, rat NaP2b; type: cell-based; settings: 33P Pi uptake, 0.1 mM phosphate, value given as pIC50 range
T1 construct: host or cells: HEK293
T1 sequence (Q9JJ09 1-695): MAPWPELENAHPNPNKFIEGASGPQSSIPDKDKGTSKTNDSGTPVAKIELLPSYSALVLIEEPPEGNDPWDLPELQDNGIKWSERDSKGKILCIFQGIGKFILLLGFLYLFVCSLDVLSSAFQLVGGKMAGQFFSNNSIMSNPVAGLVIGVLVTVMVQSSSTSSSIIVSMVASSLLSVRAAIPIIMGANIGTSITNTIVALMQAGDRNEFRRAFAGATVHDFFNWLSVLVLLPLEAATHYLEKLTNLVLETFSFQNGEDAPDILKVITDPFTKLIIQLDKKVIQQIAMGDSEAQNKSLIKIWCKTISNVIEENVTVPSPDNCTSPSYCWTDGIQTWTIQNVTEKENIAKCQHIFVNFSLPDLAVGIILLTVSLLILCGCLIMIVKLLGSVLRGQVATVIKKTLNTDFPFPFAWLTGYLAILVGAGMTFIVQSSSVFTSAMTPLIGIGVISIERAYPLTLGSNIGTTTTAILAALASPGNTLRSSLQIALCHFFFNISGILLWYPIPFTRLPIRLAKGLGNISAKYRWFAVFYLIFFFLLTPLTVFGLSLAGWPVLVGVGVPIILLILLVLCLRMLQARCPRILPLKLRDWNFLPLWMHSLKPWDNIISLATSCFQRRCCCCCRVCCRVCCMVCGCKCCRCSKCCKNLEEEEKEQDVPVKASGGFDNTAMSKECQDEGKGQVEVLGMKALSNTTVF
Outline: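 HEK293 cells were transiently transfected with NaP2b cDNA using Lipofectamine and grown near confluence. Compounds were tested at twelve concentrations from 0.1 nM to 30 uM in duplicate, and 33P-phosphate uptake was counted by scintillation after lysis. Results are expressed as pIC50.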

human NaP2b (SLC34A2) = biological target: T2, human NaP2b (SLC34A2) (Homo sapiens, UniProt O95436); assay: Inhibition of NaP2b-mediated Pi (33P) uptake in transfected HEK293 cells, human NaP2b; type: cell-based; settings: read-out: pIC50 range for human NaP2b (converted)
T2 construct: host or cells: HEK293
T2 sequence (O95436 1-690): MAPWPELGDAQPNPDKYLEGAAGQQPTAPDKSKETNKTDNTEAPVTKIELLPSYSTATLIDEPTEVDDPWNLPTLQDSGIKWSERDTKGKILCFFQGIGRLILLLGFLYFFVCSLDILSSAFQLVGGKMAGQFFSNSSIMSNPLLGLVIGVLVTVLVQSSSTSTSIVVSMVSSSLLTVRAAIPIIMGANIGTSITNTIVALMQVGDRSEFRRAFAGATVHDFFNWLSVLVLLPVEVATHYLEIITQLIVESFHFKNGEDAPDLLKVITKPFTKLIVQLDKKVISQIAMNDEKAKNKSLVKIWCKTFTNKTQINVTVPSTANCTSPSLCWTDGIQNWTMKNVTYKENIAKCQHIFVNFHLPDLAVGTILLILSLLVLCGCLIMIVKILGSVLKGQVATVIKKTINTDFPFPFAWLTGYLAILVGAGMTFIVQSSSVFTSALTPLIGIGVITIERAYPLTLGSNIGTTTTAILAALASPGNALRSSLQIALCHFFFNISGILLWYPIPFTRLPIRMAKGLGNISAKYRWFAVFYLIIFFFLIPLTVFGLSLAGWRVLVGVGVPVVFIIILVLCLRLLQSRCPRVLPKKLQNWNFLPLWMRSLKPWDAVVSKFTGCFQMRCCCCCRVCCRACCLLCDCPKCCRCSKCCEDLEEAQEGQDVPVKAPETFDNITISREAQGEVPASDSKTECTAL
Outline: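 HEK293 cells transiently transfected with human NaP2b (Thr inserted after residue 37, N39D), endogenous PiT transport pharmacologically silenced. Sodium or choline buffer, pH 7.4, with 100 uM KH2PO4, 33P orthophosphate and compound (0.1 nM–30 uM, twelve concentrations, duplicate). 3-30 min at room temperature, scintillation counting, pIC50 derived.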

[2] = Determination of compound Cmax and AUC after oral gavage (plasma LC-MS/MS); type: in vivo, Sprague-Dawley rats; settings: Sprague-Dawley, rat, plasma, po, Structure (I) examples
Outline: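 Sprague-Dawley rats dosed by oral gavage at nominal 2.5 or 10 mg/kg; blood drawn at 0.5, 1, 2 and 4 h into K2EDTA. Plasma protein-precipitated with acetonitrile plus internal standard and analysed by LC-MS/MS against a plasma standard curve to derive Cmax and AUC.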

[3] = Stability of compounds in simulated gastric fluid (SGF); type: in vitro ADME; settings: simulated gastric fluid (3 mg/mL pepsin), incubation time 6 hr, relative to t=0
Outline: (§2)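 Compounds at […] were incubated 3 or 6 hr in USP simulated gastric fluid with 3 mg/mL pepsin or simulated intestinal fluid with 3 mg/mL pancreatin. Remaining compound was quantified by HPLC-UV or HPLC-MS peak area % and reported as percent of the t=0 level in the same medium.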

[4] = Stability of compounds in simulated intestinal fluid (SIF); type: in vitro ADME; settings: simulated intestinal fluid (3 mg/mL pancreatin), incubation time 6 hr, relative to t=0
Outline: as §2

[5] = Table 15, actual oral dose 3-15 mg/kg, plasma 0.5-4 h
[6] = Table 15, actual oral dose 15-40 mg/kg, plasma 0.5-4 h

Structure (SMILES) | % recovered in feces [1] | IC50 (rat NaP2b (SLC34A2)) | IC50 (human NaP2b (SLC34A2)) | AUC [2, 5] | Cmax [2, 5] | % remaining, SGF [3] | % remaining, SIF [4] | AUC [2, 6] | Cmax ([2]; Table 15, plasma 0.5-4 h)
CC(C)(SCc1cccc(C(=O)Nc2ccc(N3CCCCC3)cc2-c2cc(C(=O)NCc3cccc(C(F)(F)F)c3)ccn2)c1)C(=O)O [Example 8.6] | 20-80% | 1 to 7.94 µM | – | > 50 ng·h/mL | < 50 ng/mL | >80% | >80% | – | –
CCN(CC)c1ccc(NC(=O)c2cccc(CCCOCCOCCOCCOCCNC(=O)c3cccc(CCCOCCOCCOCCOCCOCCOCCOCCOCCOC)c3)c2)c(-c2cc(C(=O)NCc3cccc(C(F)(F)F)c3)ccn2)c1 [Example 271, 2-(2-(3-(1-(3-(2,5,8,11,14,17,20,23,26-nonaoxanonacosan-29-yl)phenyl)-1-oxo-5,8,11,14-tetraoxa-2-azaheptadecan-17-yl)benzamido)-5-(diethylamino)phenyl)-N-(3-(trifluoromethyl)benzyl)isonicotinamide] | 20-80% | 1 to 7.94 µM | – | – | – | – | – | > 50 ng·h/mL | < 30 ng/mL
CCN(CC)c1ccc(NC(=O)c2cccc(CCCOCCOCCOCCOCCC(=O)N3CCN(C(=O)c4cccc(CCCOCCOCCOCCOCCOCCOCCOCCOCCOC)c4)CC3)c2)c(-c2cc(C(=O)NCc3cccc(C(F)(F)F)c3)ccn2)c1 [Example 262, 2-(2-(3-(16-(4-(3-(2,5,8,11,14,17,20,23,26-nonaoxanonacosan-29-yl)benzoyl)piperazin-1-yl)-16-oxo-4,7,10,13-tetraoxahexadecyl)benzamido)-5-(diethylamino)phenyl)-N-(3-(trifluoromethyl)benzyl)isonicotinamide] | 20-80% | 1 to 7.94 µM | 1 to 7.94 µM | – | – | – | – | < 50 ng·h/mL | < 10 ng/mL

Results, then the molecule that gave them:

% recovered in feces [1] | IC50 (rat NaP2b (SLC34A2)) | IC50 (human NaP2b (SLC34A2)) | AUC [2, 5] | Cmax [2, 5] | % remaining, SGF [3] | % remaining, SIF [4] | AUC [2, 6] | Cmax ([2]; Table 15, plasma 0.5-4 h) | Structure (SMILES)
>80% | < 1 µM | < 1 µM | > 50 ng·h/mL | < 10 ng/mL | – | – | – | – | CCN(CC)c1ccc(NC(=O)c2cccc(CCCOCCOCCOCCOCCNS(=O)(=O)c3ccc(CCC(=O)O)cc3)c2)c(-c2cc(C(=O)NCc3cccc(C(F)(F)F)c3)ccn2)c1 [Example 294, 3-(4-(N-(15-(3-(4-(diethylamino)-2-(4-(3-(trifluoromethyl)benzylcarbamoyl)pyridin-2-yl)phenylcarbamoyl)phenyl)-3,6,9,12-tetraoxapentadecyl)sulfamoyl)phenyl)propanoic acid]
<20% | 10 to 31.6 µM | – | < 10 ng·h/mL | < 10 ng/mL | 40-60% | >80% | – | – | O=C(O)CCOCCOCCOCCNC(=O)c1cccc(SCc2cccc(C(=O)Nc3ccc(Cl)cc3-c3cc(C(=O)NCc4cccc(C(F)(F)F)c4)ccn3)c2)c1 [Example 264, 1-(3-(3-(4-chloro-2-(4-(3-(trifluoromethyl)benzylcarbamoyl)pyridin-2-yl)phenylcarbamoyl)benzylthio)phenyl)-1-oxo-5,8,11-trioxa-2-azatetradecan-14-oic acid]
<20% | 1 to 7.94 µM | – | < 10 ng·h/mL | < 10 ng/mL | >80% | >80% | – | – | O=C(O)CCOCCOCCOCCNC(=O)Cc1cccc(SCc2cccc(C(=O)Nc3ccc(N4CCCCC4)cc3-c3cc(C(=O)NCc4cccc(C(F)(F)F)c4)ccn3)c2)c1 [Example 137]
